Source: PubChem BioAssay AID1645848
≈ marks a conversion by molar mass, not a printed value.

details: buffer; pH 7.4; 6.0 h; 150.0 µM

For `CC(=O)c1c(C)[nH]c(C(=O)Nc2cccc(S(=O)(=O)N3CCCCCC3)c2)c1C`, which solubility kinetic is on record?
Its solubility kinetic is 2.11 µg/mL (≈ 5.05 µM).

With `c1ccc(Nc2cc3c(cn2)CN(Cc2ccsc2)CCN3)cc1` as the compound, how does the solubility kinetic read?
Its solubility kinetic is over 75 µg/mL.

With `OCc1cccc(-c2cc(-c3cccnc3)c3cncn3c2)c1` as the compound, how does the solubility kinetic read?
Its solubility kinetic is 18.5 µg/mL (≈ 61.4 µM).

Which solubility kinetic does the source give for `COc1ncccc1-c1cc2c(ccn2C(C)C)c(C(=O)NCc2c(C)cc(C)[nH]c2=O)n1` here?
Its solubility kinetic is 10.1 µg/mL (≈ 22.8 µM).

For `COc1ccc(C)cc1NS(=O)(=O)c1ccc(-c2cnc(C3CC3)o2)cc1`, which solubility kinetic is on record?
The solubility kinetic was under 1 µg/mL.

For `COc1ccc(-c2nc(Nc3ccc(F)c(F)c3)c3ccccc3n2)cc1`, which solubility kinetic is on record?
The solubility kinetic was under 1 µg/mL.

For `CC1CCc2cc(F)ccc2N1C(=O)CSc1nnc2c(n1)[nH]c1ccccc12` (stereo unspecified), which solubility kinetic is on record?
Its solubility kinetic is under 1 µg/mL.

With `CC(=O)Nc1nc(C)c(-c2ccc(Cl)c(S(=O)(=O)NCCO)c2)s1` as the compound, how does the solubility kinetic read?
The solubility kinetic was over 57 µg/mL.

With `CCOC(=O)N1CCN(Cc2nc3c(c(=O)n(C)c(=O)n3C)n2Cc2ccc(F)cc2)CC1` as the compound, how does the solubility kinetic read?
The solubility kinetic was over 68 µg/mL.

With `COc1ccc(-n2nc(C)c([C@@H]3C=C[C@@H](NCc4cccc(Cl)c4)C3)c2C)cc1` as the compound, how does the solubility kinetic read?
Its solubility kinetic is 46.2 µg/mL (≈ 113 µM).

With `Cc1ccc(-n2nc3c(=O)n(CCCC(=O)NCc4ccc(F)cc4)nc(C)c3c2C)cc1` as the compound, how does the solubility kinetic read?
Its solubility kinetic is 5.86 µg/mL (≈ 13.1 µM).

With `Cn1c2ccccc2c(=O)c2c(=O)n(-c3ccccc3)c(C3CCCCC3)nc21` as the compound, how does the solubility kinetic read?
Its solubility kinetic is under 1 µg/mL.

With `NC(=O)C1CCN(c2ncc(Br)s2)CC1` as the compound, how does the solubility kinetic read?
The solubility kinetic was 32.3 µg/mL (≈ 111 µM).

For `Clc1cccc(COc2cncc(N3CCNCC3)n2)c1`, which solubility kinetic is on record?
Its solubility kinetic is over 45 µg/mL.

Which solubility kinetic does the source give for `CN(C)c1cccc(-c2cnc(N3CCC(c4ncc[nH]4)CC3)s2)c1` here?
Its solubility kinetic is 32.7 µg/mL (≈ 92.5 µM).

For `O=C(Nc1ccc(Cl)c(S(=O)(=O)N2CCOCC2)c1)c1ccc(S(=O)(=O)N2CCCCC2)cc1`, which solubility kinetic is on record?
The solubility kinetic was under 1 µg/mL.

Which solubility kinetic does the source give for `CCNc1oc(-c2cccc3ccccc23)nc1C#N` here?
The solubility kinetic was under 1 µg/mL.

For `CN(C)C(=O)c1cccc(-c2csc(N3CCC(C(N)=O)CC3)n2)c1`, which solubility kinetic is on record?
The solubility kinetic was over 53 µg/mL.

For `Cc1ccc(Nc2nc(C)c(NC(=O)c3ccc(C)cc3)c(Nc3ccc(C)cc3)n2)cc1`, which solubility kinetic is on record?
The solubility kinetic was under 1 µg/mL.

With `CCCCOc1ccccc1C(=O)Nc1ccccc1C(=O)Nc1cccc(S(=O)(=O)C(F)(F)F)c1` as the compound, how does the solubility kinetic read?
The solubility kinetic was under 1 µg/mL.

With `O=C(Nc1ccc(Cl)c(S(=O)(=O)N2CCOCC2)c1)c1ccccc1` as the compound, how does the solubility kinetic read?
Its solubility kinetic is under 1 µg/mL.

With `CC(C)CC(C)NC(=O)c1noc(-c2ccc[nH]c2=O)n1` (stereo unspecified) as the compound, how does the solubility kinetic read?
The solubility kinetic was over 43 µg/mL.

For `CCN(CC)S(=O)(=O)c1ccc(N2CCCC2)c(NS(=O)(=O)c2ccc(C)cc2)c1`, which solubility kinetic is on record?
Its solubility kinetic is 4.02 µg/mL (≈ 8.91 µM).

Which solubility kinetic does the source give for `COc1ccc(OCc2ccc(-c3nc(C#N)c(NC(C)c4ccccc4)o3)o2)cc1` (stereo unspecified) here?
Its solubility kinetic is under 1 µg/mL.

Which solubility kinetic does the source give for `CCN(CC)CCOc1ccc(Cc2ccccc2)cc1` here?
Its solubility kinetic is 8.35 µg/mL (≈ 29.5 µM).

Which solubility kinetic does the source give for `Cc1ccc(S(=O)(=O)Nc2cc(Cl)cc(C(=O)Nc3nc(-c4ccccc4)cs3)c2)cc1` here?
Its solubility kinetic is under 1 µg/mL.

Which solubility kinetic does the source give for `CC(=O)c1c(C)[nH]c(C(=O)Nc2cccc(S(=O)(=O)Nc3ccc(Br)c(F)c3)c2)c1C` here?
The solubility kinetic was under 1 µg/mL.

Which solubility kinetic does the source give for `Cc1ccnc(NC(=S)N2CCN(c3cccc(C(F)(F)F)c3)CC2)c1` here?
The solubility kinetic was 9.68 µg/mL (≈ 25.4 µM).

With `O=C1CCCC2=C1C(C1CCCCC1Cl)N=C(NC1NC3CCCCC3S1)N2` (stereo unspecified) as the compound, how does the solubility kinetic read?
Its solubility kinetic is under 1 µg/mL.

Which solubility kinetic does the source give for `NC(=O)C1CCN(c2nc(-c3ccccc3C(F)(F)F)cs2)CC1` here?
The solubility kinetic was over 52 µg/mL.

Which solubility kinetic does the source give for `O=c1c(-c2cccs2)ccc2n1C[C@H]1C[C@@H]2CN(C2CCOCC2)C1` here?
The solubility kinetic was over 79 µg/mL.

For `COc1ccc(C2=Nn3c([n+](C)c4ccccc43)SC2)cc1.[Br-]`, which solubility kinetic is on record?
The solubility kinetic was over 46 µg/mL.

With `COc1ccc(-c2cc(C(F)(F)F)nc(SCCC(=O)Nc3cc(C)ccc3O)n2)cc1` as the compound, how does the solubility kinetic read?
The solubility kinetic was under 1 µg/mL.

With `COc1cc2c(C(=O)N3CCN(c4cccc(C(F)(F)F)c4)CC3)cn(CC(C)C)c(=O)c2cc1OC` as the compound, how does the solubility kinetic read?
The solubility kinetic was 4.92 µg/mL (≈ 9.5 µM).

With `Cc1ccc(S(=O)(=O)Nc2cnccc2C(=O)Nc2nc(C3CCC3)cs2)cc1` as the compound, how does the solubility kinetic read?
The solubility kinetic was over 63 µg/mL.

With `O=C(Nc1nnc(-c2ccco2)o1)c1ccc(Cl)cc1` as the compound, how does the solubility kinetic read?
Its solubility kinetic is 28.2 µg/mL (≈ 97.3 µM).

Which solubility kinetic does the source give for `CSc1ccccc1-c1ccc(Nc2nc(-c3ccncc3)nc3ccccc23)cc1F` here?
Its solubility kinetic is under 1 µg/mL.

Which solubility kinetic does the source give for `CSc1ccc(/C=C/c2nc3ccccc3n2S(=O)(=O)c2ccc(Br)cc2)cc1` here?
Its solubility kinetic is 2.73 µg/mL (≈ 5.63 µM).

For `O=C(O)c1cnc(-c2ccc(F)cc2)nc1-c1ccncc1`, which solubility kinetic is on record?
The solubility kinetic was over 29 µg/mL.

With `CCOC(=O)c1ccc2c(c1)c(C(C)=O)c(C)n2-c1ccc(OC)cc1` as the compound, how does the solubility kinetic read?
Its solubility kinetic is under 1 µg/mL.

With `Cc1ccccc1S(=O)(=O)N1CCCC(CCC(=O)NCCN(C)C2CCCCC2)C1` (stereo unspecified) as the compound, how does the solubility kinetic read?
The solubility kinetic was 11.7 µg/mL (≈ 26 µM).

Which solubility kinetic does the source give for `CC(=O)c1c(C)[nH]c(C(=O)Nc2cccc([S+](=O)([O-])Nc3ccccn3)c2)c1C` here?
Its solubility kinetic is over 61 µg/mL.

For `CCN(CC)C(=O)c1ccc2c(c1)ncn2-c1cccc(C)c1`, which solubility kinetic is on record?
Its solubility kinetic is over 45 µg/mL.

Which solubility kinetic does the source give for `Nc1cc(CN2C(=O)c3ccccc3C2=O)cc(Cl)c1O` here?
Its solubility kinetic is 20.8 µg/mL (≈ 68.8 µM).

Which solubility kinetic does the source give for `CCN(CC)C(=O)c1sc2c(c1C)c(=O)n(Cc1ccccc1)c(=O)n2CC(=O)Nc1ccc(OC)cc1` here?
The solubility kinetic was under 1 µg/mL.

For `CNc1ncc(-c2cccc3ccccc23)o1`, which solubility kinetic is on record?
Its solubility kinetic is 25.4 µg/mL (≈ 113 µM).

Which solubility kinetic does the source give for `O=C(Nc1ncc([S+](=O)([O-])N2CCOCC2)s1)c1cccc(Br)c1` here?
The solubility kinetic was 2.94 µg/mL (≈ 6.79 µM).

With `O=C(Nc1ncc(Cc2ccc(C(F)(F)F)cc2)s1)c1ccco1` as the compound, how does the solubility kinetic read?
Its solubility kinetic is under 1 µg/mL.

With `O=C1Nc2ccccc2/C1=C\c1ccc([N+](=O)[O-])cc1` as the compound, how does the solubility kinetic read?
The solubility kinetic was under 1 µg/mL.

With `O=C1Nc2ccccc2/C1=C/c1cc(Cl)c(O)c(Cl)c1` as the compound, how does the solubility kinetic read?
The solubility kinetic was over 45 µg/mL.

For `NC(=O)NCC(=O)N[C@H]1CC[C@H](Nc2nccc(-c3ccncc3)n2)C1`, which solubility kinetic is on record?
Its solubility kinetic is over 35 µg/mL.

With `Cc1ccc(S(=O)(=O)Nc2ccccc2C(=O)Nc2nccs2)cc1` as the compound, how does the solubility kinetic read?
Its solubility kinetic is 7.17 µg/mL (≈ 19.2 µM).

Which solubility kinetic does the source give for `CN(C)c1cccc(-c2nnc(N3CCC(C(N)=O)CC3)s2)c1` here?
The solubility kinetic was over 49 µg/mL.

With `CCOC(=O)c1ccc(-n2c(C)cc(-c3nnc4n3CCCCC4)c2C)cc1` as the compound, how does the solubility kinetic read?
The solubility kinetic was over 56 µg/mL.

With `O=[S+]([O-])(Nc1ccc2ccccc2c1)c1ccc(NCc2ccc(Cl)cc2O)cc1` as the compound, how does the solubility kinetic read?
Its solubility kinetic is under 1 µg/mL.

For `Cc1c([C@@H](C)C2NC[C@H](C)C[C@@H]2O)ccc2c1C[C@@H]1[C@H]2CC=C2C[C@@H](O)CC[C@@]21C` (stereo partly specified), which solubility kinetic is on record?
Its solubility kinetic is 40.9 µg/mL (≈ 99.7 µM).

With `C/C=C1/CN2CC[C@@]34c5ccccc5N(C)[C@@H]3[C@@H]2C[C@@H]1[C@H]4C(=O)OC` as the compound, how does the solubility kinetic read?
The solubility kinetic was over 33 µg/mL.

For `COc1ccccc1CNC(=O)CCCn1nc(C)c2c(C)n(-c3ccc(C)cc3)nc2c1=O`, which solubility kinetic is on record?
Its solubility kinetic is 2.29 µg/mL (≈ 4.98 µM).

For `CN1C(=O)C(=O)N2C(=C[C@]3(c4c[nH]c5ccccc45)c4ccccc4N[C@H]23)C1=O`, which solubility kinetic is on record?
The solubility kinetic was under 1 µg/mL.

Which solubility kinetic does the source give for `CCCCc1ccc(NC(=O)c2ccc3c(c2)N(S(C)(=O)=O)CC3)cc1` here?
The solubility kinetic was 1.08 µg/mL (≈ 2.91 µM).

Which solubility kinetic does the source give for `O=[N+]([O-])c1cccc(CSc2nc3ncc(Br)cc3[nH]2)c1` here?
The solubility kinetic was under 1 µg/mL.

Which solubility kinetic does the source give for `COc1ccc(-n2nc(C3CCN(C(=O)c4ccccc4)CC3)[nH]c2=O)cc1` here?
Its solubility kinetic is over 56 µg/mL.

With `Cc1ccc(-n2c(C)cc(C3=NNC(=NC4CC4)SC3)c2C)cc1C` as the compound, how does the solubility kinetic read?
The solubility kinetic was 2.55 µg/mL (≈ 7.23 µM).

With `Cc1nn(Cc2ccc(Cl)cc2)c(C)c1NC(=O)c1cc(-c2ccc3c(c2)OCO3)on1` as the compound, how does the solubility kinetic read?
Its solubility kinetic is under 1 µg/mL.

For `COc1ncc(-c2n[nH]c3c2CC(=O)N(c2ccccc2)C3)cn1`, which solubility kinetic is on record?
The solubility kinetic was 5.46 µg/mL (≈ 17 µM).

Which solubility kinetic does the source give for `CC(C)(C)C1CCc2nc(NC(=O)c3cccc(Cl)c3)sc2C1` (stereo unspecified) here?
The solubility kinetic was under 1 µg/mL.

Which solubility kinetic does the source give for `CCOc1ccccc1CNS(=O)(=O)c1ccc(-c2cnc(C3CC3)o2)cc1` here?
The solubility kinetic was under 1 µg/mL.

Which solubility kinetic does the source give for `O=C(Cn1c2ncccc2c(=O)n1-c1ccccc1)Nc1ccc(Cl)cc1C(F)(F)F` here?
Its solubility kinetic is under 1 µg/mL.

With `Cc1ccc(S(=O)(=O)Nc2cnccc2C(=O)Nc2ccc(S(=O)(=O)Nc3nccs3)cc2)cc1` as the compound, how does the solubility kinetic read?
Its solubility kinetic is over 63 µg/mL.

With `COc1ccc(C2=Nc3ccc(Br)cc3C(c3ccccc3)N2CC(=O)NN)cc1` (stereo unspecified) as the compound, how does the solubility kinetic read?
The solubility kinetic was over 69 µg/mL.

Which solubility kinetic does the source give for `COc1cccc(CNc2ccc([S+](=O)([O-])Nc3ccccc3)cc2)c1Cl` here?
The solubility kinetic was under 1 µg/mL.
